Experimental findings from ChEMBL document CHEMBL1201862, “PubChem BioAssay data set” (2004) are described below.

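Assay format: 96-well plates, 48-hour exposure. Abbreviation: GI50, concentration required for 50% inhibition of growth.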 The source made the active and inactive calls. No stated cut-off is given here; in the data, active = GI50 up to about 1.1 µM and inactive = higher. Where only a bound is given, the exact number is not on record here.

Among the test systems are 786-0; A549; CAKI-1; HCC 2998; HCT-116; HL-60; Hs-578T; M14; MCF7; MDA-MB-435; Malme-3M; NCI-H23; NCI-H522; PC-3; RPMI-8226; SF-295; SK-MEL-28; SNB-19; SNB-75; UACC-62.
What all share (assay): NCI anticancer screen, dose series, 48 h

Regarding `COC1=CC(=O)c2c(c(COP(=O)(N(C)CCBr)N(C)CCBr)cn2C)C1=O`, the GI50 with 786-0 is < 0.0103 µM (active); in the test with A549 it was < 0.01 µM (active); in the test with CAKI-1, < 0.01 µM (active); in the test with HCC 2998, 0.0373 µM (active); with HCT-116, < 0.01 µM (active); in the test with HL-60 it was < 0.01 µM (active). The GI50 is 0.392 µM (active) with Hs-578T; < 0.0178 µM (active) in the test with M14; < 0.01 µM (active) with MCF7; 0.0588 µM (active) in the test with MDA-MB-435; 0.0811 µM (active) with Malme-3M; < 0.0326 µM (active) in the test on NCI-H23. The GI50 was 0.138 µM (active) in the test with NCI-H522; 0.643 µM (active) with PC-3; 0.0323 µM (active) with RPMI-8226; < 0.01 µM (active) in the test with SF-295; 0.141 µM (active) in the test on SK-MEL-28; 0.141 µM (active) in the test with SNB-19. Besides, the GI50 was 0.0826 µM (active) in the test on SNB-75 and < 0.0333 µM (active) with UACC-62.
On to `Oc1ccc(Cl)cc1Cc1cc(Cl)cc(Cc2cc(Cl)ccc2O)c1O`, for which the GI50 is 2.81 µM (inactive) in the test on 786-0; 2.83 µM (inactive) in the test on A549; 2.48 µM (inactive) in the test on CAKI-1; 0.836 µM (active) in the test on HCC 2998; 2.28 µM (inactive) in the test with HCT-116; 2.3 µM (inactive) with HL-60. Moreover, the GI50 was 1.88 µM (inactive) in the test with Hs-578T; 2.39 µM (inactive) with M14; 2.21 µM (inactive) in the test with MCF7; 2.82 µM (inactive) with MDA-MB-435; 1.95 µM (inactive) in the test with Malme-3M; 2.01 µM (inactive) in the test on NCI-H23. Besides, the GI50 in the test with NCI-H522 is 0.766 µM (active); in the test with PC-3 it was 2.45 µM (inactive); in the test on RPMI-8226, 0.91 µM (active); in the test with SF-295 it was 2.29 µM (inactive); with SK-MEL-28 it was 3.24 µM (inactive); with SNB-19, 2.56 µM (inactive). Moreover, the GI50 in the test on SNB-75 was 1.93 µM (inactive); in the test on UACC-62 it was 2.15 µM (inactive).
On to `COc1ccc(OC)c(NC2=NCCO2)c1`, for which the GI50 in the test with 786-0 was > 100 µM (inactive); in the test on A549 it was > 100 µM (inactive); in the test on CAKI-1, 15 µM (inactive); with HCC 2998 it was > 100 µM (inactive); with HCT-116 it was > 100 µM (inactive); in the test on HL-60 it was 83.8 µM (inactive). The GI50 was > 100 µM (inactive) in the test with Hs-578T; > 100 µM (inactive) in the test on M14; > 100 µM (inactive) in the test with MCF7; 89.7 µM (inactive) with MDA-MB-435; > 100 µM (inactive) with Malme-3M; 52.4 µM (inactive) with NCI-H23. In addition, the GI50 in the test with NCI-H522 is > 100 µM (inactive); with PC-3, > 100 µM (inactive); in the test on RPMI-8226 it was > 100 µM (inactive); with SF-295 it was > 100 µM (inactive); with SK-MEL-28, > 100 µM (inactive); with SNB-19, 10.6 µM (inactive). The GI50 with SNB-75 and in the test with UACC-62 was > 100 µM (inactive) throughout.
Regarding `CCOC(=O)/C(=C\c1c[nH]c2ccccc12)P(=O)(OCC)OCC`, the GI50 is 31.3 µM (inactive) in the test on 786-0; 40.5 µM (inactive) with A549; > 100 µM (inactive) in the test with CAKI-1; 65.3 µM (inactive) with HCC 2998; 32.9 µM (inactive) with HCT-116; 37.5 µM (inactive) in the test with HL-60. For the same molecule, the GI50 was 42.8 µM (inactive) in the test on Hs-578T; 39.6 µM (inactive) in the test with M14; 50.8 µM (inactive) with MCF7; 40.9 µM (inactive) in the test with MDA-MB-435; 18.9 µM (inactive) with Malme-3M; 29.6 µM (inactive) with NCI-H23. In addition, the GI50 in the test with NCI-H522 is 26.8 µM (inactive); with PC-3, 17.4 µM (inactive); in the test with RPMI-8226, 33.5 µM (inactive); in the test on SF-295 it was 39.9 µM (inactive); with SK-MEL-28, 36.8 µM (inactive); with SNB-19, 62.7 µM (inactive). For the same molecule, the results for the GI50 in the test on SNB-75 and in the test with UACC-62 were 26.5 µM (inactive) and 32.9 µM (inactive), respectively.
With `CNC1=C(C)C(=O)C(O)=C([C@H](C)CCC=C(C)C)C1=O`, the GI50 with 786-0 is 24.9 µM (inactive); in the test with A549 it was 20.3 µM (inactive); with CAKI-1, 11.6 µM (inactive); in the test with HCC 2998, 31.8 µM (inactive); in the test on HCT-116 it was 33.9 µM (inactive); in the test on HL-60 it was 2.4 µM (inactive). Moreover, the GI50 was 28.3 µM (inactive) with Hs-578T; 22.2 µM (inactive) in the test on M14; 37.2 µM (inactive) in the test on MCF7; 29.6 µM (inactive) with MDA-MB-435; 16 µM (inactive) in the test with Malme-3M; 20 µM (inactive) in the test with NCI-H23. For the same molecule, the GI50 in the test with NCI-H522 is 3.77 µM (inactive); in the test with PC-3 it was 22.6 µM (inactive); in the test on RPMI-8226, 2.94 µM (inactive); in the test on SF-295, 11.4 µM (inactive); with SK-MEL-28 it was 31.4 µM (inactive); in the test on SNB-19 it was 31.8 µM (inactive). Further, the GI50 was 18 µM (inactive) with SNB-75 and 13 µM (inactive) with UACC-62.
With `C=C(Br)CNCC(=C)Br`, the GI50 is > 100 µM (inactive) in the test with 786-0; > 100 µM (inactive) in the test on A549; > 100 µM (inactive) in the test on CAKI-1; > 100 µM (inactive) in the test with HCC 2998; 68.1 µM (inactive) in the test on HCT-116; 26.7 µM (inactive) in the test with HL-60. Further, the GI50 in the test on Hs-578T is > 100 µM (inactive); with M14, > 100 µM (inactive); in the test on MCF7, > 100 µM (inactive); in the test with MDA-MB-435, > 100 µM (inactive); in the test with Malme-3M, 93.1 µM (inactive); with NCI-H23 it was > 100 µM (inactive). For the same molecule, the GI50 in the test with NCI-H522 is > 100 µM (inactive); in the test with PC-3, 50.5 µM (inactive); with RPMI-8226, 51.9 µM (inactive); in the test on SF-295, > 100 µM (inactive); in the test on SK-MEL-28, > 100 µM (inactive); with SNB-19, > 100 µM (inactive). Moreover, the GI50 is 68.5 µM (inactive) in the test on SNB-75 and > 100 µM (inactive) with UACC-62.
For `C[C@H]1[C@H](C)N1CC(O)Cn1ccnc1[N+](=O)[O-]` (stereo not given in full), the GI50 with 786-0, in the test with A549, with CAKI-1, with HCC 2998, in the test with HCT-116 and in the test on HL-60 was > 100 µM (inactive) each time. The GI50 in the test with Hs-578T, with M14, in the test with MCF7, in the test on MDA-MB-435, with Malme-3M and in the test on NCI-H23 was > 100 µM (inactive) throughout. Moreover, the GI50 in the test with NCI-H522, in the test on PC-3, in the test with RPMI-8226, with SF-295, in the test on SK-MEL-28 and in the test with SNB-19 was > 100 µM (inactive) in each case. Also, the GI50 in the test on SNB-75 and in the test on UACC-62 was > 100 µM (inactive) each time.
Turning to `CC(C)OP(=O)(OC(C)C)/C(C#N)=C/c1c[nH]c2ccccc12`, the GI50 in the test with 786-0 was > 100 µM (inactive); in the test on A549, > 100 µM (inactive); in the test with CAKI-1 it was > 100 µM (inactive); with HCC 2998, > 100 µM (inactive); with HCT-116, > 100 µM (inactive); with HL-60, 19.1 µM (inactive). Also, the GI50 in the test on Hs-578T was > 100 µM (inactive); in the test on M14, 60.7 µM (inactive); with MCF7 it was 28.7 µM (inactive); with MDA-MB-435 it was 65.5 µM (inactive); with Malme-3M, 86.3 µM (inactive); in the test with NCI-H23 it was 46.2 µM (inactive). Besides, the GI50 was > 100 µM (inactive) in the test with NCI-H522; 67.6 µM (inactive) in the test on PC-3; > 100 µM (inactive) in the test on RPMI-8226; 38.9 µM (inactive) in the test with SF-295; > 100 µM (inactive) with SK-MEL-28; > 100 µM (inactive) in the test on SNB-19. In addition, the GI50 in the test with SNB-75 is 72.6 µM (inactive); in the test on UACC-62 it was 76.6 µM (inactive).
Consider `COC(=O)c1ccc(/C=C/C2=CC(=O)C=CC2=O)cc1`, for which the GI50 was 11.4 µM (inactive) in the test with 786-0; > 63.5 µM (inactive) in the test on A549; 13.8 µM (inactive) in the test on CAKI-1; 20.7 µM (inactive) with HCC 2998; 15.1 µM (inactive) with HCT-116; 2.37 µM (inactive) with HL-60. For the same molecule, the GI50 was 44.6 µM (inactive) in the test with Hs-578T; 24.7 µM (inactive) in the test with M14; 8.57 µM (inactive) in the test on MCF7; 17.4 µM (inactive) in the test with MDA-MB-435; 17.4 µM (inactive) in the test with Malme-3M; 18.1 µM (inactive) in the test on NCI-H23. In addition, the GI50 is 1.8 µM (inactive) in the test with NCI-H522; 12.8 µM (inactive) in the test on PC-3; 1.01 µM (active) with RPMI-8226; 29.6 µM (inactive) in the test with SF-295; 20.8 µM (inactive) in the test with SK-MEL-28; 10.5 µM (inactive) in the test with SNB-19. For the same molecule, the GI50 with SNB-75 was 32.8 µM (inactive); in the test on UACC-62, 19.4 µM (inactive).
For the molecule `O=C(CCN1CCCCC1)Nc1ccc2sc3ccccc3c(=O)c2n1`, the GI50 in the test on 786-0 is 11.8 µM (inactive); with A549, 15 µM (inactive); in the test on CAKI-1, 11.5 µM (inactive); in the test with HCC 2998 it was 14.4 µM (inactive); with HCT-116, 6.46 µM (inactive); in the test with HL-60, 3.89 µM (inactive). Moreover, the GI50 in the test with Hs-578T was 19.9 µM (inactive); in the test on M14, 13.6 µM (inactive); in the test on MCF7, 15.9 µM (inactive); in the test with MDA-MB-435, 13.1 µM (inactive); in the test with Malme-3M, 28 µM (inactive); in the test with NCI-H23 it was > 10 µM (inactive). For the same molecule, the GI50 in the test with NCI-H522 was 12 µM (inactive); in the test on PC-3, 11.9 µM (inactive); in the test with RPMI-8226 it was 6.04 µM (inactive); with SF-295 it was 18.1 µM (inactive); with SK-MEL-28 it was 16.7 µM (inactive); in the test with SNB-19, 15.4 µM (inactive). Also, the GI50 in the test with SNB-75 was 10.5 µM (inactive); in the test on UACC-62 it was 14.5 µM (inactive).
